Reference: patent publication US4061861A, “7-[α-(2,3-DIHYDRO-2-OXO-1H-benzimidazol-1-ylcarbonyl-amino) arylacetamido]cephalosporins” (Eli Lilly and Company, priority 1976, dated 1977)
Values after ≈ are worked out from the molar mass of the structure shown.

Key:
Assay type in all cases: cell-based
Serratia marcescens = assay: MIC by gradient plate in vitro method, Serratia marcescens; details: read-out: Minimum Inhibitory Concentration
Source text: (§1) The antibiotic activity of the cephalosporin compounds of this invention is illustrated by the data provided in the following Table of representative compounds. The values in the Table are the minimum inhibitory concentrations (MIC) for the test compounds against the indicated microorganisms. The MIC values were obtained using the gradient plate in vitro method for determining antibiotic activity.

Salmonella heidelberg = assay: MIC by gradient plate in vitro method, Salmonella heidelberg; details: Salmonella enterica, read-out: Minimum Inhibitory Concentration
Source text: as §1

Shigella sp. = assay: MIC by gradient plate in vitro method, Shigella sp.; details: read-out: Minimum Inhibitory Concentration
Source text: as §1

Klebsiella pneumoniae = assay: MIC by gradient plate in vitro method, Klebsiella pneumoniae; details: read-out: Minimum Inhibitory Concentration
Source text: as §1

V41 = assay: MIC by gradient plate in vitro method, V41 (penicillin resistant Staphylococcus); details: read-out: Minimum Inhibitory Concentration
Source text: as §1
(§2) ^1 Test organisms V41, V32, and V84 are penicillin resistant
(§3) Staphylococcus. X-400 is a methicillin resistant Staphylococcus.

Aerobacter aerogenes = assay: MIC by gradient plate in vitro method, Aerobacter aerogenes; details: Klebsiella aerogenes, read-out: Minimum Inhibitory Concentration
Source text: as §1

V32 = assay: MIC by gradient plate in vitro method, V32 (penicillin resistant Staphylococcus); details: read-out: Minimum Inhibitory Concentration
Source text: as §1, §2, §3

Escherichia coli = assay: MIC by gradient plate in vitro method, Escherichia coli; details: read-out: Minimum Inhibitory Concentration
Source text: as §1

V84 = assay: MIC by gradient plate in vitro method, V84 (penicillin resistant Staphylococcus); details: read-out: Minimum Inhibitory Concentration
Source text: as §1, §2, §3

X400 = assay: MIC by gradient plate in vitro method, X400 (methicillin resistant Staphylococcus); details: read-out: Minimum Inhibitory Concentration
Source text: as §1, §3

Pseudomonas aeruginosa = assay: MIC by gradient plate in vitro method, Pseudomonas aeruginosa; details: read-out: Minimum Inhibitory Concentration
Source text: as §1

For `NC(=O)OCC1=C(C(=O)O)N2C(=O)C(NC(=O)C(NC(=O)n3c(=O)[nH]c4ccccc43)c3ccc(O)cc3)[C@H]2SC1` (stereo partly drawn) [Test Compound E, 7-[α-(2,3-dihydro-2-oxo-1H-benzimidazol-1-ylcarbonylamino)-4-hydroxyphenylacetamido]-3-carbamoyloxymethyl-3-cephem-4-carboxylic acid], which MIC (Serratia marcescens) is on record?
The MIC was over 200 µg/mL.

And the MIC (Salmonella heidelberg)?
Its MIC is 120 µg/mL (≈ 206 µM).

And the MIC (Shigella sp.)?
The MIC was 120 µg/mL (≈ 206 µM).

What about the MIC (Klebsiella pneumoniae) of the same compound?
The MIC was 100 µg/mL (≈ 172 µM).

What about the MIC (V41) of the same compound?
The MIC was 5 µg/mL (≈ 8.58 µM).

And the MIC (Aerobacter aerogenes)?
Its MIC is over 200 µg/mL.

What about the MIC (V32) of the same compound?
Its MIC is 5 µg/mL (≈ 8.58 µM).

And the MIC (Escherichia coli)?
Its MIC is 160 µg/mL (≈ 275 µM).

And the MIC (V84)?
Its MIC is 0.7 µg/mL (≈ 1.2 µM).

And the MIC (X400)?
Its MIC is 180 µg/mL (≈ 309 µM).

And the MIC (Pseudomonas aeruginosa)?
Its MIC is 10 µg/mL (≈ 17.2 µM).

With `CC(=O)OCC1=C(C(=O)O)N2C(=O)C(NC(=O)C(NC(=O)n3c(=O)n(C)c4ccccc43)c3ccccc3)[C@H]2SC1` (stereo partly drawn) [Test Compound C, 7-[α-(3-Methyl-2,3-dihydro-2-oxo-1H-benzimidazol-1-ylcarbonylamino)phenylacetamido]-3-acetoxymethyl-3-cephem-4-carboxylic acid] as the compound, how does the MIC (Serratia marcescens) read?
The MIC was over 200 µg/mL.

And the MIC (Salmonella heidelberg)?
The MIC was 80 µg/mL (≈ 138 µM).

What about the MIC (Shigella sp.) of the same compound?
Its MIC is 55 µg/mL (≈ 94.9 µM).

What about the MIC (Klebsiella pneumoniae) of the same compound?
The MIC was 25 µg/mL (≈ 43.1 µM).

What about the MIC (V41) of the same compound?
Its MIC is 5 µg/mL (≈ 8.63 µM).

And the MIC (Aerobacter aerogenes)?
The MIC was 120 µg/mL (≈ 207 µM).

What about the MIC (V32) of the same compound?
Its MIC is 6 µg/mL (≈ 10.4 µM).

What about the MIC (Escherichia coli) of the same compound?
The MIC was 72.5 µg/mL (≈ 125 µM).

What about the MIC (V84) of the same compound?
Its MIC is 0.9 µg/mL (≈ 1.55 µM).

What about the MIC (X400) of the same compound?
Its MIC is over 20 µg/mL.

What about the MIC (Pseudomonas aeruginosa) of the same compound?
Its MIC is 8.5 µg/mL (≈ 14.7 µM).

`Cn1nnnc1SCC1=C(C(=O)O)N2C(=O)C(NC(=O)C(NC(=O)n3c(=O)n(C)c4ccccc43)c3ccccc3)[C@H]2SC1` (stereo partly drawn) [Test Compound D, 7-[α-(3-Methyl-2,3-dihydro-2-oxo-1H-benzimidazol-1-ylcarbonylamino)phenylacetamido]-3-(1-methyltetrazol-5-ylthiomethyl)-3-cephem-4-carboxylic acid] was tested. Which MIC (Serratia marcescens) did it give?
The MIC was over 200 µg/mL.

What about the MIC (Salmonella heidelberg) of the same compound?
Its MIC is 18 µg/mL (≈ 28.3 µM).

And the MIC (Shigella sp.)?
The MIC was 15 µg/mL (≈ 23.6 µM).

And the MIC (Klebsiella pneumoniae)?
The MIC was 19 µg/mL (≈ 29.9 µM).

What about the MIC (V41) of the same compound?
The MIC was 3 µg/mL (≈ 4.72 µM).

What about the MIC (Aerobacter aerogenes) of the same compound?
The MIC was 30 µg/mL (≈ 47.2 µM).

What about the MIC (V32) of the same compound?
The MIC was 3 µg/mL (≈ 4.72 µM).

What about the MIC (Escherichia coli) of the same compound?
The MIC was 14 µg/mL (≈ 22 µM).

And the MIC (V84)?
Its MIC is 0.6 µg/mL (≈ 0.944 µM).

And the MIC (X400)?
The MIC was 16 µg/mL (≈ 25.2 µM).

What about the MIC (Pseudomonas aeruginosa) of the same compound?
Its MIC is 8 µg/mL (≈ 12.6 µM).

Which results are given for `Cn1nnnc1SCC1=C(C(=O)O)N2C(=O)C(NC(=O)C(NC(=O)n3c(=O)[nH]c4ccccc43)c3ccccc3)[C@H]2SC1` (stereo partly drawn) [Test Compound B, 7-[α-(2,3-Dihydro-2-oxo-1H-benzimidazol-1-ylcarbonylamino)phenylacetamido]-3-(1-methyltetrazol-5-ylthiomethyl)-3-cephem-4-carboxylic acid]?
MIC (Serratia marcescens): 120 µg/mL (≈ 193 µM); MIC (Salmonella heidelberg): 15 µg/mL (≈ 24.1 µM); MIC (Shigella sp.): 16 µg/mL (≈ 25.7 µM); MIC (Klebsiella pneumoniae): 7 µg/mL (≈ 11.3 µM); MIC (V41): 1 µg/mL (≈ 1.61 µM); MIC (Aerobacter aerogenes): 21.8 µg/mL (≈ 35.1 µM); MIC (V32): 6 µg/mL (≈ 9.65 µM); MIC (Escherichia coli): 9 µg/mL (≈ 14.5 µM); MIC (V84): 0.9 µg/mL (≈ 1.45 µM); MIC (X400): > 20 µg/mL; MIC (Pseudomonas aeruginosa): 12 µg/mL (≈ 19.3 µM)

For `CC(=O)OCC1=C(C(=O)O)N2C(=O)C(NC(=O)C(NC(=O)n3c(=O)[nH]c4ccccc43)c3ccccc3)[C@H]2SC1` (stereo partly drawn) [Test Compound A, 7-[α-(2,3-Dihydro-2-oxo-1H-benzimidazol-1-ylcarbonylamino)phenylacetamido]-3-acetoxymethyl-3-cephem-4-carboxylic acid], which MIC (Serratia marcescens) is on record?
The MIC was over 200 µg/mL.

What about the MIC (Salmonella heidelberg) of the same compound?
Its MIC is 120 µg/mL (≈ 212 µM).

What about the MIC (Shigella sp.) of the same compound?
Its MIC is 100 µg/mL (≈ 177 µM).

What about the MIC (Klebsiella pneumoniae) of the same compound?
The MIC was 90 µg/mL (≈ 159 µM).

And the MIC (V41)?
The MIC was 8 µg/mL (≈ 14.1 µM).

And the MIC (Aerobacter aerogenes)?
Its MIC is 140 µg/mL (≈ 248 µM).

What about the MIC (V32) of the same compound?
The MIC was 11 µg/mL (≈ 19.4 µM).

What about the MIC (Escherichia coli) of the same compound?
Its MIC is 140 µg/mL (≈ 248 µM).

And the MIC (V84)?
The MIC was 8 µg/mL (≈ 14.1 µM).

What about the MIC (X400) of the same compound?
The MIC was over 20 µg/mL.

And the MIC (Pseudomonas aeruginosa)?
Its MIC is 16 µg/mL (≈ 28.3 µM).
